Conditions: in water

SMILES | solubility (mole fraction) (298.1 K) | solubility (mole fraction) (303.1 K) | solubility (mole fraction) (310.1 K) | solubility (mole fraction) (318.1 K) | solubility (mole fraction) (328.1 K)
CC(C)(C)CC(C)(C)c1ccc(O)cc1 | 1.32e-06 | 1.55e-06 | 1.91e-06 | 2.52e-06 | 3.83e-06
CCCCCCCCc1ccc(O)cc1 | 2.9e-07 | 3.4e-07 | 4.7e-07 | 6.4e-07 | 8.4e-07
CCCCCCCCCc1ccc(O)cc1 | 4e-08 | 5e-08 | 7e-08 | 1.4e-07 | 2e-07
